Reference: patent US20060241100A1, “Acylaminobicyclic heteroaromatic compounds and uses thereof” (Pfizer Inc, priority 2005, published 2006)

Test system: CB-1 receptor
Assay: CB-1 receptor binding ([3H]SR141716A displacement)
Details: rat or human CB-1 protocol not specified; kind of value (Ki/IC50) not stated
Method: Compounds having an activity <20 nM are generally tested in the CB-1 GTPγ [^35S] Binding Assay and the CB-2 binding assay described below in the Biological Binding Assays section. Selected compounds are then tested in vivo using one or more of the functional assays described in the Biological Functional Assays section below. The compounds in the Examples above provided a range of CB-1 receptor binding activities from 0.1 to 500 nM.
The following assays were designed to detect compounds that inhibit the binding of [^3H] SR141716A (selective radiolabeled CB-1 ligand) and [^3H]5-(1,1-dimethylheptyl)-2-[5-hydroxy-2-(3-hydroxypropyl)-cyclohexyl]-phenol; radiolabeled CB-1/CB-2 ligand) to their respective receptors. […]
The test compounds were diluted in drug buffer (0.5% BSA, 10% DMSO and TME) and then 25 μl were added to a deep well polypropylene plate. […] In the morning the filters were counted on a Wallac Betaplate™ counter (available from PerkinElmer Life Sciences™, Boston, Mass.). […]
The test compounds were diluted in drug buffer (0.5% BSA, 10% DMSO and TME) and then 25 μl were added to a deep well polypropylene plate. […] In the morning the filters were counted on a Wallac Betaplate™ counter (available from PerkinElmer Life Sciences™, Boston, Mass.).

CB-1 receptor binding activity: 47 nM
SMILES: CNC1CCCOc2c1nn(-c1ccccc1Cl)c2-c1ccc(Cl)cc1 (stereo not shown) [Example 1C]
